# Biological target: T1, EP2 receptor (Homo sapiens, UniProt P43116)
# T1 construct: expressed in transfected cells; host or cells: CHO-K1 cells (ATCC), transient transfection with FuGENE 6
# Experiment: EP2 potency assay (cAMP TR-FRET, LANCE Ultra cAMP kit) in transfected CHO-K1 cells stimulated with PGE2 at EC80
# Assay type: cell-based
# Details: Table (V), EP2 antagonism, CHO-K1 cells expressing EP2, PGE2 at EC80
# Method: Compound potency was measured using a cAMP TR-FRET assay. CHO-K1 cells (ATCC) were seeded at a density of 9.75×105 in 6 cm plates, and then on the following day cell media was changed to Opti-Mem I reduced serum media (Gibco), and transfected with a plasmid for expression of the EP2 receptor (the target receptor of interest), using the FuGENE 6 Transfection reagent (Promega). After 6 hours incubation, the cell media was replaced with F12 medium supplemented with 10% FBS and 100 U/ml Pen-Strep. 24 hours after transfection, cells were harvested and seeded at a density of 3000 cells/well in a 384 well plate to perform the cAMP assay, using the LANCE Ultra cAMP assay kit (PerkinElmer). For each test compound of interest, 10 nl/well of serially diluted test compound was added to each well, resulting in a range of 10 serially diluted compound concentrations from 10000 nM to 0.038 nM, with duplicate wells for each concentration. Plates were then centrifuged at 1000 rpm for 1 min, agitated at 600 rpm at R.T. for 2 min, and incubated at 25° C. for 5 min. The reference agonist, prostaglandin E2 (MCE), was added to each well at the appropriate concentration to reach its EC80 value. Plates were then centrifuged at 1000 rpm for 1 min, agitated at 600 rpm at R.T. for 2 min, and incubated at 25° C. for 30 min. To measure levels of cAMP, 5 μl/well of Eu-cAMP working solution and 5 μl/well of Ulight-anti-cAMP working solution were added to each well, and the plate was centrifuged at 1000 rpm for 1 min, agitated at 600 rpm at R.T. for 2 min, and incubated at 25° C. for 15 min. Levels of TR-FRET fluorescence were measured in each well using an EnVision microplate reader (excitation wavelength=337 nm and emission wavelength=615 and 665 nm). A dose-response curve was prepared by plotting percent inhibition for each compound concentration, and then IC50 was calculated by fitting a curve to the plotted values and extrapolating the IC50 concentration. […] Potency data is grouped into categories of AA (IC50<100 nM); A (IC50=100 to 500 nM); B (IC50=500 nM to […]); C (IC50=1 μM to 5 μM); and D (IC50>5 μM).
# T1 sequence (P43116 whole entry): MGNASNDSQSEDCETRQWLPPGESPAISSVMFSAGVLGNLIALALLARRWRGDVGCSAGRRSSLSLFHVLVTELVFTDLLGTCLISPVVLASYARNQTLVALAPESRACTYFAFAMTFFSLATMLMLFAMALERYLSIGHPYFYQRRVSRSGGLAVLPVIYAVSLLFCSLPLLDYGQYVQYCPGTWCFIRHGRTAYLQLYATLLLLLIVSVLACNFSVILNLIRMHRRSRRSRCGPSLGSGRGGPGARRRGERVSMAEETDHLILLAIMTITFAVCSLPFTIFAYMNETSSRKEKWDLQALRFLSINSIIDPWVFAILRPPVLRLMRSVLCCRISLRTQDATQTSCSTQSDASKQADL
row,IC50,SMILES
1,0.1 to 0.5 µM,"COc1ncc(CN2CCOc3c(Cl)cc(-c4coc5c(F)c(F)ccc45)cc3C2)cn1 [II-39, 9-chloro-7-(6,7-difluorobenzofuran-3-yl)-4-((2-methoxypyrimidin-5-yl)methyl)-2,3,4,5-tetrahydrobenzo[f][1,4]oxazepine]"
2,< 0.1 µM,"O=C(O)c1ncc(CN2CCOc3c(Cl)cc(-n4ccc5c(F)c(F)ccc54)cc3C2)cn1 [II-41, 5-((9-chloro-7-(4,5-difluoro-1H-indol-1-yl)-2,3-dihydrobenzo[f][1,4]oxazepin-4(5H)-yl)methyl)pyrimidine-2-carboxylic acid]"
3,< 0.1 µM,"Fc1ccc2c(ccn2-c2cc(Cl)c3c(c2)CN(Cc2cnc(-c4nnn[nH]4)nc2)CCO3)c1F [II-42, 4-((2-(1H-tetrazol-5-yl)pyrimidin-5-yl)methyl)-9-chloro-7-(4,5-difluoro-1H-indol-1-yl)-2,3,4,5-tetrahydrobenzo[f][1,4]oxazepine]"
4,< 0.1 µM,"Fc1ccc2c(-c3cc(Cl)c4c(c3)CN(Cc3cnc(-c5nnn[nH]5)nc3)CCO4)coc2c1 [II-43, 4-((2-(1H-tetrazol-5-yl)pyrimidin-5-yl)methyl)-9-chloro-7-(6-fluorobenzofuran-3-yl)-2,3,4,5-tetrahydrobenzo[f][1,4]oxazepine]"
5,< 0.1 µM,"O=c1ncc(CN2CCOc3c(Cl)cc(-n4ncc5cc(F)ccc54)cc3C2)c[nH]1 [II-44, 5-((9-chloro-7-(5-fluoro-1H-indazol-1-yl)-2,3-dihydrobenzofuran[f][1,4]oxazepin-4(5H)-yl)methyl)pyrimidin-2(1H)-one]"
6,0.1 to 0.5 µM,"COc1ncc(CN2CCOc3c(Cl)cc(-c4csc5cc(F)ccc45)cc3C2)cn1 [II-46, 9-chloro-7-(6-fluorobenzo[b]thiophen-3-yl)-4-((2-methoxypyrimidin-5-yl)methyl)-2,3,4,5-tetrahydrobenzo[f][1,4]oxazepine]"
7,< 0.1 µM,"O=c1ncc(CN2CCOc3c(Cl)cc(-c4csc5cc(F)ccc45)cc3C2)c[nH]1 [II-47, 5-((9-chloro-7-(6-fluorobenzo[b]thiophen-3-yl)-2,3-dihydrobenzo[f][1,4]oxazepin-4(5H)-yl)methyl)pyrimidin-2(1H)-one]"
8,< 0.1 µM,"COc1ncc(CN2CCOc3c(Cl)cc(-c4coc5cc(F)ccc45)cc3C2)cn1 [II-48, 9-chloro-7-(6-fluorobenzofuran-3-yl)-4-((2-methoxypyrimidin-5-yl)methyl)-2,3,4,5-tetrahydrobenzo[f][1,4]oxazepine]"
9,0.5 to 1 µM,"COc1ncc(CN2CCOc3c(Cl)cc(-n4cnc5cc(F)ccc54)cc3C2)cn1 [II-49, 9-chloro-7-(5-fluoro-1H-benzo[d]imidazol-1-yl)-4-((2-methoxypyrimidin-5-yl)methyl)-2,3,4,5-tetrahydrobenzo[f][1,4]oxazepine]"
10,< 0.1 µM,"CS(=O)(=O)Nc1cc(CN2CCOc3c(Cl)cc(-n4ccc5cc(F)ccc54)cc3C2)cnn1 [II-52, N-(5-((9-chloro-7-(5-fluoro-1H-indol-1-yl)-2,3-dihydrobenzo[f][1,4]oxazepin-4(5H)-yl)methyl)pyridazin-3-yl)methanesulfonamide]"
11,< 0.1 µM,"CCOC(=O)c1ncc(CN2CCOc3c(Cl)cc(-n4ccc5c(F)c(F)ccc54)cc3C2)cn1 [II-74, ethyl 5-((9-chloro-7-(4,5-difluoro-1H-indol-1-yl)-2,3-dihydrobenzo[f][1,4]oxazepin-4(5H)-yl)methyl)pyrimidine-2-carboxylate]"
